In PMC11061835, “Elucidating the Mechanism of Metabolism of Cannabichromene by Human Cytochrome P450s” (Journal of Natural Products, 2024):
Where “and” joins values, the source holds several entries; their conditions need not be identical. Equal values may be shown once.

Legend:
[1] = In vivo metabolism of CBC, mouse blood plasma (LC-MS/MS); set-up: species or system mice
Method: CBC was dissolved in ethanol, and an aliquot was then mixed with Tween-80. Ethanol was removed by evaporation. The mixture was then reconstituted with PBS to a 6% final concentration of Tween-80. C 57BL/6J female mice, age 8–10 weeks, were injected with 20 mg/kg CBC or vehicle intravenously (IV, n = 3) via the tail vein or intraperitoneally (IP, n = 3). Blood samples were collected terminally by cardiac puncture into heparin-coated syringes at 0.5 and 2 h after CBC treatment and transferred into tubes. The tubes were then centrifuged, and plasma samples were removed and stored at −80 °C.
200 μL of blood plasma from each sample was taken into a glass tube, and 500 μL of extraction solvent (hexane:ethyl acetate 80:20 v/v) was added. The remaining extraction steps are similar to those used for CBC metabolite extraction from CYPs as mentioned earlier.
Samples were analyzed with the 5500 QTRAP LC/MS/MS system (Sciex, Framingham, MA) in the Metabolomics Lab of Roy J. Carver Biotechnology Center, University of Illinois at Urbana–Champaign. Software Analyst 1.7.1 was used for data acquisition and analysis. The 1200 series HPLC system (Agilent Technologies, Santa Clara, CA) includes a degasser, an autosampler, and a binary pump. The LC separation was performed on a Phenomenex Gemini C6-phenyl column (2 × 100 mm, 3 μm) with mobile phase A (0.1% formic acid in water) and mobile phase B (0.1% formic acid in acetonitrile). The flow rate was 0.2 mL/min. The linear gradient was as follows: 0–2 min, 95% A; 10 min, 50% A; 20–25 min, 0% A; 25.1–31 min, 95% A. The autosampler was set at 10 °C. The injection volume was 5 μL. Mass spectra were acquired under positive electrospray ionization (ESI) with the ion spray voltage of +5000 V. The source temperature was 400 °C. The curtain gas, ion source gas 1, and ion source gas 2 were 325, 65, and 55 psi, respectively. Multiple reaction monitoring (MRM) was used for quantitation: CBC m/z 315.1 → m/z 135.0; 1-acetoxy-6′,7′-dihydroxy-CBC (JM-I-73) m/z 349.1→ m/z 193.0; 1″-hydroxy-CBC (JM-I-66) m/z 331.1→ m/z 275.1; 6′,7′-epoxy-CBC (JM-I-27) m/z 331.1→ m/z 193.0; 7′,10′-ene-6′-hydroxy-CBC (JM-I-30) m/z 331.1→ m/z 193.0; 8′-hydroxy-CBC (JM-I-32) […]→ m/z 77.0. Internal standard EET-EA-d11 was monitored at m/z 375.2→ m/z 357.1.

[2] = target: CYP2D6 (Homo sapiens, UniProt P10635); test: Spectroscopic titration (Soret shift), CYP2D6; format: binding; set-up: His-tag; made in house; host or cells: E. coli DH-5α with pTGro7 plasmid; conditions: CYP2D6, absence of CPR
Chain of CYP2D6 (P10635 whole entry): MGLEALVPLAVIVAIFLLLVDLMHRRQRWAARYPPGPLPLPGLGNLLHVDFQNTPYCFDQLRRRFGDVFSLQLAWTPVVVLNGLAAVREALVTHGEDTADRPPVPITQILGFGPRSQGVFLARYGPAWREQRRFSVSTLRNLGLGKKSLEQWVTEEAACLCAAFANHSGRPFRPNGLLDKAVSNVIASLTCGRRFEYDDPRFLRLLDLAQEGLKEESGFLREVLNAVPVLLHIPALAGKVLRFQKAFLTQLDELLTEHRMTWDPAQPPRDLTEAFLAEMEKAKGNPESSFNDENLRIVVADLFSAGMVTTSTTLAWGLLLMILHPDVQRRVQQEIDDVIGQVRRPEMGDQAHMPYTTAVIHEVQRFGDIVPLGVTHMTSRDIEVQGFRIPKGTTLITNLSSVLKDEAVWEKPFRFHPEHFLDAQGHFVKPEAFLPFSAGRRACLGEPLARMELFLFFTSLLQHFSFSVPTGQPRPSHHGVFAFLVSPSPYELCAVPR
Method: CBC binding to various CYPs was determined by analyzing the Soret shift from ∼417 to ∼390 nm. CBC (stock 10 mM) was dissolved in ethanol and titrated with different CYPs at room temperature. Buffer-exchanged CYP2J2, CYP2D6, CYP3A4, and CYP2C8 (concentrations of proteins were kept between 4 and 5 μM) were dissolved in 0.1 M phosphate buffer (pH = 7.4), and initial spectra were recorded from 200 to 800 nm with a prominent peak at 417 nm. The concentration of CBC was varied from 0 to 100 μM keeping the final concentration of substrate in EtOH not more than 1% in cuvette. 0–4 μL of stock CBC was added using a Hamilton syringe in both the sample and blank cuvettes. The mixture was incubated for 5 min at 37 °C, and absorbance spectra were recorded using a Cary Bio 300 UV–vis spectrophotometer (Agilent Technologies, Santa Clara, CA). To eliminate the background absorbance, we derived the final spectra by […].

Row | SMILES | detection as product of CBC metabolism in mouse plasma ([1]; mice, CBC 20 mg/kg IV or IP, plasma at 0.5 and 2 h) | detection in blood plasma after 2 h of CBC administration ([1]; mice, both IP and IV, 2 h) | plasma concentration relative to the 6′,7′-epoxy compound ([1]; mouse plasma 0.5 h after CBC 20 mg/kg, depending on mode of administration (IP or IV)) | ΔAmax (spin state change due to heme perturbation) [2] | Kd ([2]; read-out: Kd(app))
1 | CCCCCc1cc(O)c2c(c1)OC(C)(CC/C=C(\C)CO)C=C2 (centres unmarked) [8′-hydroxy-CBC] | detected | not detected | 4–8 times |  | 
2 | CCCCCc1cc(O)c2c(c1)OC(C)(CCC=C(C)C)C=C2 (centres unmarked) [CBC, Cannabichromene] |  |  |  | 0.09 ± 0.01 and ~0.09 | 11.4 µM and ~11 µM
